ChEMBL document CHEMBL1201862, “PubChem BioAssay data set” (2004)
Activity calls are given as the source filed them.

Columns and labels:
Paired box protein Pax-8 = Paired box protein Pax-8 (Homo sapiens, UniProt Q06710); assay: inhibitors of PAX8-driven TPO luciferase reporter, dose response, RMG-I cells, cherry-pick (AID 687027); assay type: functional, cell-based;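 note: luciferase reporter driven by Pax8 target thyroperoxidase promoter measured by SteadyGlo luminescence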
[1] = IGROV1 ovarian cancer cell cytotoxicity, dose response, PAX8 inhibitor project, plate reader, dry powder samples (AID 743043); assay type: functional, cell-based; details: IGROV-1
[2] = non-specific cell cytotoxicity, dose response, cytotoxicity control for PAX8 inhibitor project, plate reader, dry powder samples (AID 743021); assay type: functional, cell-based
[3] = cytotoxicity in OVCAR8 ovarian cancer cells, dose response, PAX8 project, cell-based, plate reader, dry powder samples (AID 743197); assay type: functional; details: OVCAR-8
[4] = A cytotoxicity screen of small molecule inhibitors of the PhoP region in Salmonella typhi identified in the primary screen. [Related pubchem assays: 1850, 1864, 1985 ]; assay type: functional
[5] = target: Disintegrin and metalloproteinase domain-containing protein 17 (Homo sapiens, UniProt P78536); assay: exosite inhibitors of ADAM17, dose response, biochemical (AID 743260)
[6] = ADAM10 protease inhibitors, dose response, selectivity assay for ADAM17 exosite inhibitor project, biochemical, FRET peptide substrate, recombinant human ADAM10 (AID 743259);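 note: ADAM10 enzyme cleaving a FRET peptide substrate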
[7] = target: T1, Heat shock factor protein 1 (Mus musculus, UniProt P38532); assay: inhibition of MG132-induced HSE-luciferase signal, confirmation, cell-based, NIH3T3, luminescence, dose retest (AID 2382); assay type: functional;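 note: NIH3T3 fibroblasts with HSF1-driven luciferase reporter stressed by proteasome inhibitor MG132; luminescence from HSF1-driven luciferase expression after 8 hours of MG132 stress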
T1 sequence (P38532 whole entry): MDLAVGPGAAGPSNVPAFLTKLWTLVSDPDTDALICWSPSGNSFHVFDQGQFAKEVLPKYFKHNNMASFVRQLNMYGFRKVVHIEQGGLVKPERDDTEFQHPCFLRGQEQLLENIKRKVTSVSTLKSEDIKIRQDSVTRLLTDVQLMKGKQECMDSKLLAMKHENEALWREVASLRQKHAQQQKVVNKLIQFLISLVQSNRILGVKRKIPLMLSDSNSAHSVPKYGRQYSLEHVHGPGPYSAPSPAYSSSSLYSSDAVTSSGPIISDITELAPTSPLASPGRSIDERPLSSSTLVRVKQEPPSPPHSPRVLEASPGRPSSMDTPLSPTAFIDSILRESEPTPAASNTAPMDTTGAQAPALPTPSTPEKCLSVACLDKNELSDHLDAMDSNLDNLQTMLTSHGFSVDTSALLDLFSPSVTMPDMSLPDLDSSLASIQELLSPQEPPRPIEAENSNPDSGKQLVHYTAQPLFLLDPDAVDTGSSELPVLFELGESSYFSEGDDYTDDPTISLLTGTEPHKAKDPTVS

[8] = inhibitors of intracellular T. cruzi replication, confirmation, NIH3T3 host cells, beta-gal luminescence (AID 2044); assay type: functional, cell-based;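 note: intracellular parasites grown in NIH/3T3 mouse fibroblasts as host cells; luminescent beta-galactosidase reporter signal from transgenic T. cruzi replicating inside host cells; inhibitors lower the luminescence signal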
[9] = cytotoxicity toward NIH3T3 fibroblasts, dose response, counter-screen, cell-based, ATP luminescence, mouse fibroblasts (AID 2010); assay type: functional;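 note: cells exposed to compound for about 90 hours before reading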
[10] = THP-1 cell cytotoxicity, dose response, cytotoxicity control for non-replicating M. tuberculosis project (AID 489025); assay type: functional
cells = assay type: functional
CHO = assay: cytotoxicity in TLR9-MyD88 CHO cells, dose response, cytotoxicity control for TLR9-MyD88 binding inhibitor project, cell-based, luminescence (AID 588339); assay type: functional, hamster; details: Cricetulus griseus;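 note: CHO cells stably coexpressing TLR9 and MyD88 fusions from primary screen; compound exposure lasted 48 hours before viability readout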
[11] = target: T2, Replicative DNA helicase DnaB (Mycobacterium tuberculosis, UniProt P9WMR3); assay: DnaB intein splicing inhibitors, dose response, biochemical, cell-free fluorescence (AID 449749); assay type: functional
T2 sequence (P9WMR3 whole entry): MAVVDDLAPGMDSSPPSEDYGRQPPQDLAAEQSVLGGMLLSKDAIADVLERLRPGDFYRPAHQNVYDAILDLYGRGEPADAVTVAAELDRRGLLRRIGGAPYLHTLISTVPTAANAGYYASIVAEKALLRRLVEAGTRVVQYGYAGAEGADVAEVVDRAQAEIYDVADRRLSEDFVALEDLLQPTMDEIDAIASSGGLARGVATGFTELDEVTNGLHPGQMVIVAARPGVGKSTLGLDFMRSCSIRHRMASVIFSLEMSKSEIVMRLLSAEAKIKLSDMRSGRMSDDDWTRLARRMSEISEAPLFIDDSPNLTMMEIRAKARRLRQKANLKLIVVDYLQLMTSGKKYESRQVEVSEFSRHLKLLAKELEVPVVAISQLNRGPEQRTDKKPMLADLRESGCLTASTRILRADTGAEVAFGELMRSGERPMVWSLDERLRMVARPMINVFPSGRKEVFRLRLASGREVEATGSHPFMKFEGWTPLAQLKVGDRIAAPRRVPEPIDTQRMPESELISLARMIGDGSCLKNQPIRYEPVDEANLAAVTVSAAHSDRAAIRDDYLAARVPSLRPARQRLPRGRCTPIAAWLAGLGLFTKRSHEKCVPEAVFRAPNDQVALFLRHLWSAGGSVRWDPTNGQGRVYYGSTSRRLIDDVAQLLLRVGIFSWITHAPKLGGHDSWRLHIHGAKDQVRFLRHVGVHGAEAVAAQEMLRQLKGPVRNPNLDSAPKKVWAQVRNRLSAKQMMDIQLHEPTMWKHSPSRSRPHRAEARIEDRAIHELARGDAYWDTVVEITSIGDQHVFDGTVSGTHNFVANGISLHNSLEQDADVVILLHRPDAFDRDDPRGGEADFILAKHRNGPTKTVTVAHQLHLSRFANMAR

Protein RecA = target: T3, Protein RecA (Mycobacterium tuberculosis, UniProt P9WHJ3); assay: Fluorescence Cell-Free Homogeneous Dose Retest to Identify Inhibitors of RecA-Intein Splicing Activity. [Related pubchem assays (depositor defined):AID2097, AID2223, AID489010, AID492950]; assay type: functional
T3 sequence (P9WHJ3 whole entry): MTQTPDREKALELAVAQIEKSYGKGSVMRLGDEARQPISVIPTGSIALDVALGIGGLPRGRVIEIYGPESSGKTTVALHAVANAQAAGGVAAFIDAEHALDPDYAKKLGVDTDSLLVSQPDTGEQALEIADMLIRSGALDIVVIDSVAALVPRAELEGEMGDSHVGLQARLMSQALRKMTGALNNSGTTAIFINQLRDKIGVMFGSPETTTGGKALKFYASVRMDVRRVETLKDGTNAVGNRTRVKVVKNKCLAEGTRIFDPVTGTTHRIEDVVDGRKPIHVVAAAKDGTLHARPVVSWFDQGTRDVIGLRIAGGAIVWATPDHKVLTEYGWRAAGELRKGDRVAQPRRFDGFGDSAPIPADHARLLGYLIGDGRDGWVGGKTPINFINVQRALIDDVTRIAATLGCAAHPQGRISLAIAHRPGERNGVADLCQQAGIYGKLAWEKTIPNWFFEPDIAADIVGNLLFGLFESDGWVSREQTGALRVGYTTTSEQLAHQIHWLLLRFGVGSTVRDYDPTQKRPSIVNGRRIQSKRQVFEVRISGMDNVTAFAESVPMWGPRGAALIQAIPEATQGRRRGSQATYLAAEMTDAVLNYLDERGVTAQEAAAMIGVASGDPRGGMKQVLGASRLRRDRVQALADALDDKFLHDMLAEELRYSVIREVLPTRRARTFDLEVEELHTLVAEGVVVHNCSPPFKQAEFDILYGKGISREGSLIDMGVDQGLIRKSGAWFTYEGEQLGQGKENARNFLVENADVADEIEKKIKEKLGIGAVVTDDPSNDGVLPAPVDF

Beta Lactamase = Beta Lactamase (Pseudomonas aeruginosa, UniProt Q932Y6); assay: beta-lactamase reporter inhibitor potency, dose response, artefact control for TLR9-MyD88 binding inhibitor project, BLA reporter cells, FRET fluorescence (AID 588341); assay type: cell-based;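 note: cell based assay in CHO-K1 cells stably expressing beta-lactamase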
[12] = P. falciparum late gametocyte killing, dose response, luminescence (AID 1117278); assay type: functional, cell-based;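 note: gametocytes exposed to compound for 24 hours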
[13] = Jurkat T cell cytotoxicity, dose response, cytotoxicity control for P. falciparum gametocyte viability project, luminescence (AID 1117277); assay type: functional, cell-based;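 note: potency reflects loss of cellular ATP meaning fewer viable cells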
[14] = target: T4, Mannose-6-phosphate isomerase (Homo sapiens, UniProt P34949); assay: human PMI inhibitors, high substrate, primary screen, biochemical, fluorescence intensity, high mannose 6-phosphate (AID 1220)
T4 sequence (P34949 whole entry): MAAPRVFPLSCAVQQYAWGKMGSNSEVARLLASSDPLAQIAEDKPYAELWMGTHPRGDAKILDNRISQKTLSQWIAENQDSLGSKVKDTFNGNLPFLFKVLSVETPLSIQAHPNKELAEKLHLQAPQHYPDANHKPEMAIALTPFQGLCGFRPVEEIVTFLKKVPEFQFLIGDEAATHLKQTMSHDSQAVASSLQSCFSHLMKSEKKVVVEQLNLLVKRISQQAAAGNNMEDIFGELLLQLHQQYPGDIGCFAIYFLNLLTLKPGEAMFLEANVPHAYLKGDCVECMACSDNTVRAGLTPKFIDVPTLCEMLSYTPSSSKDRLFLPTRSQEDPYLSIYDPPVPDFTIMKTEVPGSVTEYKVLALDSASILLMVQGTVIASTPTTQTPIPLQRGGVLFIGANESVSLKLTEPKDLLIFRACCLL

Ephrin type-A receptor 4 = Ephrin type-A receptor 4 (Mus musculus, UniProt Q03137); assay: inhibitors of EphA4 binding to KYL peptide, primary screen, biochemical, colorimetric, mouse EphA4 (AID 689); assay type: functional
Sequence of Ephrin type-A receptor 4 (Q03137 whole entry): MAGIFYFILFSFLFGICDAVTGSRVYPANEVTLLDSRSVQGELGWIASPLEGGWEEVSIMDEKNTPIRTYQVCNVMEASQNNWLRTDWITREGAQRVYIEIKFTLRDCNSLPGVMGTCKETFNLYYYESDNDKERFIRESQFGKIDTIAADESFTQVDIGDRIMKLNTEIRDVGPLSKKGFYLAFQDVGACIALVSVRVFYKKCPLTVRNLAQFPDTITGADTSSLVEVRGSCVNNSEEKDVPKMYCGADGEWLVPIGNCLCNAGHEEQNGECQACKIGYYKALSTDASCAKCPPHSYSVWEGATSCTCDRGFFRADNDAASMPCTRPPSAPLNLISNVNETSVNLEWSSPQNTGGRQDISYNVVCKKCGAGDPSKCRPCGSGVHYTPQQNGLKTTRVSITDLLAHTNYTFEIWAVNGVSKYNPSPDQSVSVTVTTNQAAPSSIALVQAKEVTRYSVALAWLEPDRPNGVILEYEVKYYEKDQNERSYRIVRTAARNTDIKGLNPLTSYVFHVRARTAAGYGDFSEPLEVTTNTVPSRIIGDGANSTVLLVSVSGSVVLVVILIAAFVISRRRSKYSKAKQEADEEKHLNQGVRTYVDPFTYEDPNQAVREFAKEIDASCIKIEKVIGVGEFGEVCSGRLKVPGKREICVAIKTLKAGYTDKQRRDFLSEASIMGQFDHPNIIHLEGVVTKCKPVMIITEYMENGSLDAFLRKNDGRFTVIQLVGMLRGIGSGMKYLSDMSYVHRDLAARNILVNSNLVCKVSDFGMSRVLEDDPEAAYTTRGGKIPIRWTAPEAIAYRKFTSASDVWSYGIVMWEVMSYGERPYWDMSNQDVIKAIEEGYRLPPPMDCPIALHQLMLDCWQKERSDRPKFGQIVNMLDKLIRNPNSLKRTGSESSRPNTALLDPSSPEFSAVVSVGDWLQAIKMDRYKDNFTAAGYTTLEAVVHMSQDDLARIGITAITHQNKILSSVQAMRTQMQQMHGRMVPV

Sequence of Disintegrin and metalloproteinase domain-containing protein 17 (P78536 whole entry, the tested form may be a part): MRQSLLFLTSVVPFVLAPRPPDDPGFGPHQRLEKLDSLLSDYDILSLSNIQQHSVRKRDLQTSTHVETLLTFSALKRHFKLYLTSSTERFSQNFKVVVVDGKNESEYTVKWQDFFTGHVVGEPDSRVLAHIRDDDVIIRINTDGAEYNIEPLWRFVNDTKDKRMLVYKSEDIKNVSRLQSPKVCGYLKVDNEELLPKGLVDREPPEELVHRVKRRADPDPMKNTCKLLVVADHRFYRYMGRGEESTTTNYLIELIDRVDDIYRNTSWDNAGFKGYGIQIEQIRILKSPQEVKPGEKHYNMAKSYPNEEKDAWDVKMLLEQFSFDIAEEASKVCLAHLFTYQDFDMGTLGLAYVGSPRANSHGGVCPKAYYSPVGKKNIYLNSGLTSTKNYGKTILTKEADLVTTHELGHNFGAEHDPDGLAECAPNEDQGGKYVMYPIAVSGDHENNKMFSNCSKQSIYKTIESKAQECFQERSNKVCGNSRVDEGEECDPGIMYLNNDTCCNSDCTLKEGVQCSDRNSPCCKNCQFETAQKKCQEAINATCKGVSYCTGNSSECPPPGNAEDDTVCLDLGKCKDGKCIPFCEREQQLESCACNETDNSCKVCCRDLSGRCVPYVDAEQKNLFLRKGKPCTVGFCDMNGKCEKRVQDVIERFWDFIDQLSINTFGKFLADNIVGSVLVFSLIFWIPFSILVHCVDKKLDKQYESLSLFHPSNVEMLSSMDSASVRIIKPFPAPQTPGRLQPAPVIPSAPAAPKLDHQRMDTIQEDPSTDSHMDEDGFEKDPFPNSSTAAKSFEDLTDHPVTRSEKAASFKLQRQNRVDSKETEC
Sequence of Paired box protein Pax-8 (Q06710 whole entry): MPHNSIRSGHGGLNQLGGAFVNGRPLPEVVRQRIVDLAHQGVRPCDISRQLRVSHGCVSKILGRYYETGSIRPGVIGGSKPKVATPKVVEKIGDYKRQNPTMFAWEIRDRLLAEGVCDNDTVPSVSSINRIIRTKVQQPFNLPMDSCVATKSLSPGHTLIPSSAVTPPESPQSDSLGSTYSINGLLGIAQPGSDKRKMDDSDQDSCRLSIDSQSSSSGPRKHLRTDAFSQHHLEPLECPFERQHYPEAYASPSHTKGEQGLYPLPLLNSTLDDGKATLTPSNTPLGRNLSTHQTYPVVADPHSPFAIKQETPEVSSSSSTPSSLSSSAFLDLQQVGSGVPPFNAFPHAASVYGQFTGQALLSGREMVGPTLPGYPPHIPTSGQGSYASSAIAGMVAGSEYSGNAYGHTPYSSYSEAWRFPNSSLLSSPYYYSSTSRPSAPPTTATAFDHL
Sequence of Beta Lactamase (Q932Y6 whole entry): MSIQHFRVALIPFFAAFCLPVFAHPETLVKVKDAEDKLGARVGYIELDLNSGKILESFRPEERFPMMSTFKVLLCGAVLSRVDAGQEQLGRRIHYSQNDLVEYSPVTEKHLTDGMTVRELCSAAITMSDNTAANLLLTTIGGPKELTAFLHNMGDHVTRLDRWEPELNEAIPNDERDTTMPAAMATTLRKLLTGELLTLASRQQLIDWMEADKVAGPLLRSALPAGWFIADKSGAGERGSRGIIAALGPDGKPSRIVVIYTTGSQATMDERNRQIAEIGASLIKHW

SMILES: C[C@@H]1CN([C@H](C)CO)C(=O)c2cc(NC(=O)Nc3ccc(C(F)(F)F)cc3)ccc2O[C@@H](C)CCCCO[C@H]1CN(C)Cc1ccc2c(c1)OCO2
- AC50 (Paired box protein Pax-8): 7.63 µM (active)
- AC50 [1]: 26.7 µM (active)
- AC50 [2]: 66.4 µM (active)
- AC50 [3]: 31.6 µM (active)

SMILES: Cc1cc(C)nc(SCC(=O)NCc2ccco2)n1
- EC50 [4]: > 50 µM (active)

SMILES: Cc1noc(C)c1C(=O)OCC(=O)Nc1ccccc1Oc1ccccc1
- IC50 [5]: > 69.5 µM (inactive)
- IC50 [6]: > 69.5 µM (inactive)

SMILES: CN(Cc1ccc(F)cc1)C(=O)c1cccc(OCc2ccccc2)c1
- IC50 [5]: > 69.5 µM (inactive)
- IC50 [6]: 21.5 µM (inactive)

SMILES: CCS(=O)(=O)c1ncc(Cl)c(C(=O)Nc2ccc(C)cc2)n1
- EC50 [7]: 5.18 µM (inconclusive)
- EC50 [8]: 2.31 µM (active)
- EC50 [9]: 4.9 µM (active)
- CC50 [10]: 21 µM (active)
- IC50 (cells): 5.21 µM (active)
- IC50 (CHO): 3.98 µM (active)
- AC50 [11]: 5.56 µM (active)
- EC50 (Protein RecA): 6.94 µM (active)
- IC50 (Beta Lactamase): 7.65 µM (active)
- AC50 (Paired box protein Pax-8): 17.2 µM (active)
- AC50 [2]: 34.9 µM (active)

SMILES: CCOC(=O)c1ccc(NC(=O)CCOc2ccc(C)cc2)cc1
- IC50 [12]: > 109 µM (inactive)
- IC50 [13]: > 83.3 µM (inactive)

SMILES: COc1ccc(NS(=O)(=O)c2ccc(OC)c(NC(=O)CCC3CCCC3)c2)cc1
- IC50 [5]: > 69.5 µM (inactive)
- IC50 [6]: > 69.5 µM (inactive)

SMILES: COCCO/C(O)=C1\C(C)=NC2(O)c3ccccc3C(=O)C12O (stereo unspecified)
- IC50 [14]: > 50 µM (not active)

SMILES: C=CCn1c(SCC(=O)Nc2ncc(Cc3cc(C(F)(F)F)ccc3Cl)s2)nnc1-c1ccncc1
- IC50 (Ephrin type-A receptor 4): > 100 µM (not active)
